Measured values taken from patent US12312308B2, “Salts and esters of APX3330 and therapeutic uses thereof” (Opus Genetics, Inc., priority 2022, dated 2025).
Structures can show the parent of a compound that is named as a salt.

Assay: Dynamic vapor sorption (DVS) analysis
Type: physicochemical

maximum water adsorption (DVS, at 82% RH): about 1.52% | water retained at the end of the desorption branch (DVS, end of desorption branch): 0.19% | crystalline form after DVS (subsequent XRPD analysis) (post-DVS sample vs pre-DVS sample, XRPD): maintained the same crystalline form
SMILES: CCCCCCCCC/C(=C\C1=C(C)C(=O)C(OC)=C(OC)C1=O)C(=O)O [Compound 1 calcium salt]
